{
  "source": "paper PMC5909127",
  "about": "“Optimization of a “bump-and-hole” approach to allele-selective BET bromodomain inhibition” (Chemical Science, 2018)",
  "assay_in_all_cases": "CEREP ExpresSProfile",
  "conditions_in_all_cases": "read-out: Mean % of control specific binding (±SD)",
  "key": {"5-HT2B (h)": {"molecular_target": "5-HT2B (h) (Homo sapiens, UniProt P41595)", "sequence (P41595 whole entry)": "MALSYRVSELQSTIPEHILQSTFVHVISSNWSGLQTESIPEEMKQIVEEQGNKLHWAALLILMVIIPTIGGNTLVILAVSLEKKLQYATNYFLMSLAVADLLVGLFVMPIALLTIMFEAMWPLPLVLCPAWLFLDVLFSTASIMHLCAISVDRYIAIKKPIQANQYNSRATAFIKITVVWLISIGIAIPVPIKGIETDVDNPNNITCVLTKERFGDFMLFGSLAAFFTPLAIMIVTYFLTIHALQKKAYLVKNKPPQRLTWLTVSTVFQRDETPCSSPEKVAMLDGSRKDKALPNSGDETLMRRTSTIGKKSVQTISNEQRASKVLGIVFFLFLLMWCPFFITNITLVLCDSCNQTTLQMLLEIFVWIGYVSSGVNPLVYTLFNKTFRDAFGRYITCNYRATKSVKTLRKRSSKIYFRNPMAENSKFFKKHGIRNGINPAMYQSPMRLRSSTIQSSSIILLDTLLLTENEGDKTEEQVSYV"}, "5-HT7 (h)": {"molecular_target": "5-HT7 (h) (Homo sapiens, UniProt P34969)", "sequence (P34969 whole entry)": "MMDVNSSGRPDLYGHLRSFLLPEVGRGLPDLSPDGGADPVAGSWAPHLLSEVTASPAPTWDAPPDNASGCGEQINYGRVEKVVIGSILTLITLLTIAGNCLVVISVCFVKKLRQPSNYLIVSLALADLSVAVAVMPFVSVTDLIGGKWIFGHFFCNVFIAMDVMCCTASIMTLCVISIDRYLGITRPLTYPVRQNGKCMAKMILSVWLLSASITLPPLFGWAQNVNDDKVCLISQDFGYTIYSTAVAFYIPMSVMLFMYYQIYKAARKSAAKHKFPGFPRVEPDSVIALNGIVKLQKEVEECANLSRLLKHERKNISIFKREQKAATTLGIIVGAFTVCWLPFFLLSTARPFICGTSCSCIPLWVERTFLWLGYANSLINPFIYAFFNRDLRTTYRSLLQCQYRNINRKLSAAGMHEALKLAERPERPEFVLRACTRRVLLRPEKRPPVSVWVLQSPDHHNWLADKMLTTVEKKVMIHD"}, "ETA (h)": {"molecular_target": "ETA (h) (Homo sapiens, UniProt P25101)", "sequence (P25101 21-427)": "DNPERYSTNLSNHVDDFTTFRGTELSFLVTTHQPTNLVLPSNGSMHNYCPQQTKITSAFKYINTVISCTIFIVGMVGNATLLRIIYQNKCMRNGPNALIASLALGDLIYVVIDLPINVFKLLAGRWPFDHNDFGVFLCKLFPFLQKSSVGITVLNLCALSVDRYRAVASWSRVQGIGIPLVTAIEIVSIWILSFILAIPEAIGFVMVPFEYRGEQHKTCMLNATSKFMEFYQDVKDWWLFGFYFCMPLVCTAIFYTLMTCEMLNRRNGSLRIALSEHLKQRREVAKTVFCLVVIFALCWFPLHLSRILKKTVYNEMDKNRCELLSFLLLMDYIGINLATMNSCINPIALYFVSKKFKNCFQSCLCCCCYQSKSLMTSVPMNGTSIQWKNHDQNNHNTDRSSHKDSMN", "source_text": "Receptor Reference Compound Mean % of control specific\nReceptor & Ion-Channel Screening\nCEREP ExpresSProfile panel"}},
  "data": [
    {"smiles": "COC(=O)[C@H](C)[C@@H]1N=C(c2ccc(Cl)cc2)c2ccc(OC)cc2-n2c(C)nnc21", "note": "[(2R,3S)-7]", "values": [
      {"measurement": "remaining activity at 1 µM", "setting": "5-HT2B (h)", "value": 109, "unit": "%"},
      {"measurement": "remaining activity at 1 µM", "setting": "5-HT7 (h)", "value": 106, "unit": "%"},
      {"measurement": "remaining activity at 1 µM", "setting": "ETA (h)", "value": 87, "unit": "%"}
    ]}
  ]
}
